SMILES strings stand for the structures.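 Five concentrations, 48 hours, 96-well plates. Abbreviation: GI50, concentration required for 50% inhibition of growth. At the TGI there is no net growth.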

One experiment deals with A549 NSCLC. Put plainly: inhibition of tumour cell growth, NCI panel, 48 h.
With `O=C(/C=C/c1cccc(O)c1)c1cccc(-n2cc(-c3ccc4ccccc4c3)[nH]c2=O)c1`, the GI50 is 3.38 µM and the TGI is 12.7 µM.

With `C=CC1=C(C)C2=NC1=CC1=NC(=CC3=C(C)C4=C(O)[C@H](C(=O)OC)C(=C5NC(=C2)[C@@H](C)[C@@H]5CCC(=O)O)C4=N3)C(CC)=C1C`, the TGI was > 43.9 µM.

With `COc1ccc(Nc2nccc(N3CCN(c4c5ccc(Cl)cc5nc5ccc(OC)cc45)CC3)n2)cc1`, the GI50 was 7.51 µM and the TGI was > 100 µM.

Turning to `COc1ccc(-c2cnoc2-c2cc(OC)c3c(c2)OCCO3)cc1`, the GI50 is 0.048 µM and the TGI was > 100 µM.

In the case of `COc1ccc(C2Oc3c(c(O)cc4c3[C@H](c3ccc(O)cc3O)[C@H](O)C(c3ccc(O)c(O)c3)O4)C[C@@H]2O)cc1O` (stereo partly drawn), the TGI was > 100 µM.

For `CCOC(OC1=C(C#N)CCCC1)C(CC)[Se]c1ccccc1` (stereo not drawn), the TGI was > 100 µM.

Regarding `O=S1CSSC1`, the TGI was > 100 µM.

Regarding `CC(=O)[CH-]C(=O)c1ccccc1.CC(=O)[CH-]C(=O)c1ccccc1.CC1(C)OCC(C2OC3OC(C)(C)OC3C2[O-])O1.CC[O-].[Ti+4]` (stereo not drawn), the GI50 is 16.6 µM and the TGI came to 40 µM.

Turning to `COc1c(O)c(OC)c2oc(-c3ccc(O)cc3)c(OC)c(=O)c2c1O`, the TGI was > 100 µM.

For the molecule `Cc1ccccc1/C=C/C(=O)c1ccccc1`, the TGI worked out at 65.1 µM.

Turning to `COC(=O)C1C(=O)N(CCc2c[nH]c3ccccc23)C[C@@H]2CCC(=O)C[C@H]12` (stereo partly drawn), the TGI is > 100 µM.

With `CC1(C)CC(=O)C(CC2C(=O)c3ccccc3C2=O)C(=O)C1`, the TGI is > 100 µM.

`Cc1ccc(C)c(N2C(=O)C(=O)C(c3nc4ccccc4s3)C(=Nc3cccc4c(=O)[nH][nH]c(=O)c34)C2=O)c1` (stereo not drawn): the TGI was > 100 µM.

With `O=C1c2ccccc2-c2c1c1ccccc1c(=O)n2CCNCCn1c2c(c3ccccc3c1=O)C(=O)c1ccccc1-2`, the GI50 was > 25 µM and the TGI is > 25 µM.

Turning to `Cc1cccc(C)c1N1C(=O)C(=O)C(c2nc3ccccc3s2)C(=Nc2cccc3c(=O)[nH][nH]c(=O)c23)C1=O` (stereo not drawn), the TGI was > 100 µM.

Turning to `Cn1c(=O)nc2n(-c3ccc(Cl)c(C(F)(F)F)c3)c3ccccc3nc-2c1=O`, the TGI was > 86.3 µM.

A further experiment has as its system DU-145 prostate. Kind of experiment: inhibition of tumour cell growth, NCI panel, 48 h.
With `O=C(/C=C/c1cccc(O)c1)c1cccc(-n2cc(-c3ccc4ccccc4c3)[nH]c2=O)c1`, the GI50 was 1750 nM and the TGI amounted to 3.65 µM.

`C=CC1=C(C)C2=NC1=CC1=NC(=CC3=C(C)C4=C(O)[C@H](C(=O)OC)C(=C5NC(=C2)[C@@H](C)[C@@H]5CCC(=O)O)C4=N3)C(CC)=C1C`: the TGI is > 100 µM.

Consider `COc1ccc(Nc2nccc(N3CCN(c4c5ccc(Cl)cc5nc5ccc(OC)cc45)CC3)n2)cc1`, for which the GI50 was 28700 nM and the TGI was > 100 µM.

`COc1ccc(-c2cnoc2-c2cc(OC)c3c(c2)OCCO3)cc1`: the GI50 is 45.6 nM and the TGI is > 46.9 µM.

Consider `COc1c(O)c(OC)c2oc(-c3ccc(O)cc3)c(OC)c(=O)c2c1O`, for which the TGI was > 100 µM.

As for `O=C1c2ccccc2-c2c1c1ccccc1c(=O)n2CCNCCn1c2c(c3ccccc3c1=O)C(=O)c1ccccc1-2`, the GI50 was > 25000 nM and the TGI is > 25 µM.

For a further experiment, the system named is EKVX NSCLC. Kind of experiment: inhibition of tumour cell growth, NCI panel, 48 h.
Take `O=C(/C=C/c1cccc(O)c1)c1cccc(-n2cc(-c3ccc4ccccc4c3)[nH]c2=O)c1`: the GI50 is 2.64 µM and the TGI is 13.9 µM.

Turning to `COc1ccc(C2Oc3c(c(O)cc4c3[C@H](c3ccc(O)cc3O)[C@H](O)C(c3ccc(O)c(O)c3)O4)C[C@@H]2O)cc1O` (stereo partly drawn), the TGI was > 100 µM.

Take `CCOC(OC1=C(C#N)CCCC1)C(CC)[Se]c1ccccc1` (stereo not drawn): the TGI was 69.2 µM.

For the molecule `O=S1CSSC1`, the TGI turned out to be 77.8 µM.

As for `CC(=O)[CH-]C(=O)c1ccccc1.CC(=O)[CH-]C(=O)c1ccccc1.CC1(C)OCC(C2OC3OC(C)(C)OC3C2[O-])O1.CC[O-].[Ti+4]` (stereo not drawn), the GI50 is 6.56 µM and the TGI was 23.3 µM.

Turning to `COc1c(O)c(OC)c2oc(-c3ccc(O)cc3)c(OC)c(=O)c2c1O`, the TGI is > 100 µM.

Molecule `Cc1ccccc1/C=C/C(=O)c1ccccc1` showed a TGI of 33.7 µM.

For `COC(=O)C1C(=O)N(CCc2c[nH]c3ccccc23)C[C@@H]2CCC(=O)C[C@H]12` (stereo partly drawn), the TGI is > 100 µM.

For `CC1(C)CC(=O)C(CC2C(=O)c3ccccc3C2=O)C(=O)C1`, the TGI was > 100 µM.

For the molecule `Cc1ccc(C)c(N2C(=O)C(=O)C(c3nc4ccccc4s3)C(=Nc3cccc4c(=O)[nH][nH]c(=O)c34)C2=O)c1` (stereo not drawn), the TGI is > 100 µM.

Consider `O=C1c2ccccc2-c2c1c1ccccc1c(=O)n2CCNCCn1c2c(c3ccccc3c1=O)C(=O)c1ccccc1-2`, for which the GI50 is > 25 µM and the TGI was > 25 µM.

With `Cc1cccc(C)c1N1C(=O)C(=O)C(c2nc3ccccc3s2)C(=Nc2cccc3c(=O)[nH][nH]c(=O)c23)C1=O` (stereo not drawn), the TGI was > 100 µM.

As to `Cn1c(=O)nc2n(-c3ccc(Cl)c(C(F)(F)F)c3)c3ccccc3nc-2c1=O`, the TGI is > 83.9 µM.

Another experiment concerns HCT-116 colon. Put plainly: inhibition of tumour cell growth, NCI panel, 48 h.
Turning to `O=C(/C=C/c1cccc(O)c1)c1cccc(-n2cc(-c3ccc4ccccc4c3)[nH]c2=O)c1`, the GI50 is 0.407 µM and the TGI amounted to 1.45 µM.

As for `C=CC1=C(C)C2=NC1=CC1=NC(=CC3=C(C)C4=C(O)[C@H](C(=O)OC)C(=C5NC(=C2)[C@@H](C)[C@@H]5CCC(=O)O)C4=N3)C(CC)=C1C`, the TGI is > 59 µM.

For `COc1ccc(Nc2nccc(N3CCN(c4c5ccc(Cl)cc5nc5ccc(OC)cc45)CC3)n2)cc1`, the GI50 is 3.87 µM and the TGI was > 100 µM.

Take `COc1ccc(-c2cnoc2-c2cc(OC)c3c(c2)OCCO3)cc1`: the GI50 is 0.0396 µM and the TGI was > 37 µM.

Turning to `COc1ccc(C2Oc3c(c(O)cc4c3[C@H](c3ccc(O)cc3O)[C@H](O)C(c3ccc(O)c(O)c3)O4)C[C@@H]2O)cc1O` (stereo partly drawn), the TGI was > 100 µM.

The molecule `CCOC(OC1=C(C#N)CCCC1)C(CC)[Se]c1ccccc1` (stereo not drawn) returned a TGI of 28.6 µM.

Molecule `O=S1CSSC1` yielded a TGI of 31.7 µM.

`CC(=O)[CH-]C(=O)c1ccccc1.CC(=O)[CH-]C(=O)c1ccccc1.CC1(C)OCC(C2OC3OC(C)(C)OC3C2[O-])O1.CC[O-].[Ti+4]` (stereo not drawn): the GI50 was 14.9 µM and the TGI worked out at 28.1 µM.

Take `COc1c(O)c(OC)c2oc(-c3ccc(O)cc3)c(OC)c(=O)c2c1O`: the TGI is > 100 µM.

As for `Cc1ccccc1/C=C/C(=O)c1ccccc1`, the TGI amounted to 31 µM.

`COC(=O)C1C(=O)N(CCc2c[nH]c3ccccc23)C[C@@H]2CCC(=O)C[C@H]12` (stereo partly drawn): the TGI was > 100 µM.

Turning to `CC1(C)CC(=O)C(CC2C(=O)c3ccccc3C2=O)C(=O)C1`, the TGI is > 100 µM.

`Cc1ccc(C)c(N2C(=O)C(=O)C(c3nc4ccccc4s3)C(=Nc3cccc4c(=O)[nH][nH]c(=O)c34)C2=O)c1` (stereo not drawn): the TGI is > 100 µM.

For the molecule `O=C1c2ccccc2-c2c1c1ccccc1c(=O)n2CCNCCn1c2c(c3ccccc3c1=O)C(=O)c1ccccc1-2`, the GI50 is > 25 µM and the TGI is > 25 µM.

With `Cc1cccc(C)c1N1C(=O)C(=O)C(c2nc3ccccc3s2)C(=Nc2cccc3c(=O)[nH][nH]c(=O)c23)C1=O` (stereo not drawn), the TGI is > 100 µM.

For the molecule `Cn1c(=O)nc2n(-c3ccc(Cl)c(C(F)(F)F)c3)c3ccccc3nc-2c1=O`, the TGI was > 79.4 µM.

The next experiment relates to KM12 colon. Kind of experiment: inhibition of tumour cell growth, NCI panel, 48 h.
For the molecule `O=C(/C=C/c1cccc(O)c1)c1cccc(-n2cc(-c3ccc4ccccc4c3)[nH]c2=O)c1`, the GI50 was 1.21 µM and the TGI came to 2.45 µM.

For the molecule `C=CC1=C(C)C2=NC1=CC1=NC(=CC3=C(C)C4=C(O)[C@H](C(=O)OC)C(=C5NC(=C2)[C@@H](C)[C@@H]5CCC(=O)O)C4=N3)C(CC)=C1C`, the TGI was > 20.5 µM.

On to `COc1ccc(Nc2nccc(N3CCN(c4c5ccc(Cl)cc5nc5ccc(OC)cc45)CC3)n2)cc1`, for which the GI50 was 6.96 µM and the TGI was > 100 µM.

Turning to `COc1ccc(-c2cnoc2-c2cc(OC)c3c(c2)OCCO3)cc1`, the GI50 is < 0.0162 µM and the TGI was 16 µM.

For `COc1ccc(C2Oc3c(c(O)cc4c3[C@H](c3ccc(O)cc3O)[C@H](O)C(c3ccc(O)c(O)c3)O4)C[C@@H]2O)cc1O` (stereo partly drawn), the TGI is > 100 µM.

As for `CCOC(OC1=C(C#N)CCCC1)C(CC)[Se]c1ccccc1` (stereo not drawn), the TGI was > 100 µM.

In turn, `O=S1CSSC1` registered a TGI of 55.8 µM.

For `CC(=O)[CH-]C(=O)c1ccccc1.CC(=O)[CH-]C(=O)c1ccccc1.CC1(C)OCC(C2OC3OC(C)(C)OC3C2[O-])O1.CC[O-].[Ti+4]` (stereo not drawn), the GI50 was 11.4 µM and the TGI was 26.8 µM.

Consider `COc1c(O)c(OC)c2oc(-c3ccc(O)cc3)c(OC)c(=O)c2c1O`, for which the TGI is > 100 µM.

`Cc1ccccc1/C=C/C(=O)c1ccccc1` displayed a TGI of 48.6 µM.

On to `COC(=O)C1C(=O)N(CCc2c[nH]c3ccccc23)C[C@@H]2CCC(=O)C[C@H]12` (stereo partly drawn), for which the TGI is > 100 µM.

For `CC1(C)CC(=O)C(CC2C(=O)c3ccccc3C2=O)C(=O)C1`, the TGI is > 100 µM.

Take `Cc1ccc(C)c(N2C(=O)C(=O)C(c3nc4ccccc4s3)C(=Nc3cccc4c(=O)[nH][nH]c(=O)c34)C2=O)c1` (stereo not drawn): the TGI is > 100 µM.

As to `O=C1c2ccccc2-c2c1c1ccccc1c(=O)n2CCNCCn1c2c(c3ccccc3c1=O)C(=O)c1ccccc1-2`, the GI50 was > 25 µM and the TGI was > 25 µM.

In the case of `Cc1cccc(C)c1N1C(=O)C(=O)C(c2nc3ccccc3s2)C(=Nc2cccc3c(=O)[nH][nH]c(=O)c23)C1=O` (stereo not drawn), the TGI was > 100 µM.

`Cn1c(=O)nc2n(-c3ccc(Cl)c(C(F)(F)F)c3)c3ccccc3nc-2c1=O`: the TGI is > 100 µM.

The next experiment relates to M14 melanoma. Put plainly: inhibition of tumour cell growth, NCI panel, 48 h.
Turning to `O=C(/C=C/c1cccc(O)c1)c1cccc(-n2cc(-c3ccc4ccccc4c3)[nH]c2=O)c1`, the GI50 is 1.49 µM and the TGI stood at 3.07 µM.

As for `COc1ccc(Nc2nccc(N3CCN(c4c5ccc(Cl)cc5nc5ccc(OC)cc45)CC3)n2)cc1`, the GI50 is 33 µM and the TGI was > 100 µM.

Source of the values: PubChem BioAssay (NCI).
